# Measurements: ChEMBL document CHEMBL1629445, “Synthesis and evaluation of azetidinone analogues of combretastatin A-4 as tubulin targeting agents” (J Med Chem, 2010)
# pIC50: −log10 of the molar value.
# Tests used:
# [1] = system: MCF7; test: cells; conditions: Homo sapiens, MCF7, 72 h
# [2] = system: MDA-MB-231; test: Antiproliferative activity against human MDA-MB-231 cells after 72 hrs by MTT assay; type: functional, cell-based; conditions: MDA-MB-231, 72 h
# [3] = Cytotoxicity against in CD1 mouse mammary epithelial cells after 72 hrs by alamar blue dye assay; type: cell-based; conditions: CD1, Epithelial cell
# [4] = Growth inhibition of human NCI60 cells; type: functional
pIC50 [1],SMILES,pIC50 [2],pIC50 [3],GI50 [4] [µM]
6.65,COc1ccc([C@@H]2[C@@H](c3ccc(OC)c(OC)c3)C(=O)N2c2cc(OC)c(OC)c(OC)c2)cc1,–,–,–
7.16,COc1ccc([C@@H]2[C@@H](c3cccc(O)c3)C(=O)N2c2cc(OC)c(OC)c(OC)c2)cc1,–,–,–
6.16,COc1ccc([C@@H]2[C@@H](c3ccccc3OC)C(=O)N2c2cc(OC)c(OC)c(OC)c2)cc1,–,–,–
5.47,COc1ccc([C@@H]2[C@@H](c3ccc(Cl)c(Cl)c3)C(=O)N2c2cc(OC)c(OC)c(OC)c2)cc1,–,–,–
6.14,COc1ccc([C@@H]2[C@@H](c3ccccc3)C(=S)N2c2cc(OC)c(OC)c(OC)c2)cc1,–,–,–
6.50,COc1ccc([C@@H]2[C@@H](c3ccc(F)c(F)c3)C(=O)N2c2cc(OC)c(OC)c(OC)c2)cc1,–,–,–
6.31,COc1ccc([C@@H]2[C@@H](c3ccc([N+](=O)[O-])cc3)C(=O)N2c2cc(OC)c(OC)c(OC)c2)cc1,–,–,–
4.61,COc1ccc([C@@H](Nc2cc(OC)c(OC)c(OC)c2)[C@@H](CO)c2ccccc2)cc1O,–,–,–
8.35,COc1ccc([C@@H]2[C@@H](c3ccc(N)cc3)C(=O)N2c2cc(OC)c(OC)c(OC)c2)cc1O,–,–,–
5.15,COc1ccc([C@@H]2[C@@H](c3cc(OC)c(OC)c(OC)c3)C(=O)N2c2cc(OC)c(OC)c(OC)c2)cc1,–,–,–
6.35,COc1ccc([C@@H]2[C@@H](c3ccc(SC)cc3)C(=O)N2c2cc(OC)c(OC)c(OC)c2)cc1,–,–,–
5.78,COc1ccc([C@@H]2[C@@H](c3ccc(C(F)(F)F)cc3)C(=O)N2c2cc(OC)c(OC)c(OC)c2)cc1,–,–,–
6.49,COc1ccc([C@@H]2[C@@H](c3cccc(OC)c3)C(=O)N2c2cc(OC)c(OC)c(OC)c2)cc1,–,–,–
6.52,COc1ccc([C@@H]2[C@@H](c3ccc(Cl)cc3)C(=O)N2c2cc(OC)c(OC)c(OC)c2)cc1,–,–,–
7.19,COc1ccc([C@@H]2[C@@H](c3ccccc3)C(=O)N2c2cc(OC)c(OC)c(OC)c2)cc1N,6.37,–,–
4.42,COc1ccc([C@H]2C(=O)N(c3ccccc3)[C@@H]2c2cc(OC)c(OC)c(OC)c2)cc1,–,–,–
5.87,COc1ccc([C@@H]2[C@@H](c3ccc(F)cc3)C(=O)N2c2cc(OC)c(OC)c(OC)c2)cc1[N+](=O)[O-],–,–,–
6.33,COc1ccc([C@@H]2[C@@H](c3ccccc3)C(=O)N2c2cc(OC)c(OC)c(OC)c2)cc1[N+](=O)[O-],–,–,–
4.37,COc1ccc(N2C(=O)[C@H](c3ccccc3)[C@H]2c2cc(OC)c(OC)c(OC)c2)cc1,–,–,–
6.50,COc1ccc([C@@H]2[C@@H](c3ccc(C)cc3)C(=O)N2c2cc(OC)c(OC)c(OC)c2)cc1,–,–,–
4.37,COc1ccc([C@@H]2[C@@H](c3cc(OC)c(OC)c(OC)c3)C(=O)N2c2ccccc2)cc1,–,–,–
7.40,COc1ccc([C@@H]2[C@@H](c3ccc(O)cc3)C(=O)N2c2cc(OC)c(OC)c(OC)c2)cc1N,5.77,–,–
7.18,COc1ccc([C@@H]2[C@@H](c3ccc(F)cc3)C(=O)N2c2cc(OC)c(OC)c(OC)c2)cc1O,6.97,–,–
7.29,COc1ccc([C@@H]2[C@@H](c3ccc(N)cc3)C(=O)N2c2cc(OC)c(OC)c(OC)c2)cc1,6.65,–,–
< 4.00,COC(=O)C(c1ccccc1)[C@H](Nc1cc(OC)c(OC)c(OC)c1)c1ccc(OC)c(O)c1 (some centres not stated),–,–,–
7.46,COc1ccc([C@@H]2[C@@H](c3ccccc3)C(=O)N2c2cc(OC)c(OC)c(OC)c2)cc1,7.11,–,–
6.74,COc1ccc([C@H]2C(=O)N(c3cc(OC)c(OC)c(OC)c3)[C@@H]2c2ccc(OC)cc2)cc1,–,–,0.21
5.10,COc1ccc([C@@H]2[C@@H](c3ccc(OCc4ccccc4)cc3)C(=O)N2c2cc(OC)c(OC)c(OC)c2)cc1,–,–,–
6.38,COc1ccc([C@@H]2[C@@H](c3ccc(Br)cc3)C(=O)N2c2cc(OC)c(OC)c(OC)c2)cc1,–,–,–

SMILES,pIC50 [1],pIC50 [2],pIC50 [3],GI50 [4] [µM]
COc1ccc([C@@H]2[C@@H](c3ccc(F)cc3)C(=O)N2c2cc(OC)c(OC)c(OC)c2)cc1N,7.26,7.09,–,–
COc1ccc([C@@H]2[C@@H](c3ccccc3)C(=O)N2c2cc(OC)c(OC)c(OC)c2)cc1O,8.02,7.54,< 5.00,0.024
COc1ccc([C@@H]2[C@@H](c3ccc(O)cc3)C(=O)N2c2cc(OC)c(OC)c(OC)c2)cc1O,9.10,6.75,< 5.00,–
COc1ccc([C@@H]2[C@@H](c3ccc(N)cc3)C(=O)N2c2cc(OC)c(OC)c(OC)c2)cc1N,7.51,–,–,–
COc1ccc(/C=C\c2cc(OC)c(OC)c(OC)c2)cc1O [COMBRETASTATIN A4],8.28,7.37,< 5.00,–
COc1ccc([C@@H]2[C@@H](c3ccc(O)cc3)C(=O)N2c2cc(OC)c(OC)c(OC)c2)cc1,7.23,6.80,–,–
COc1ccc([C@@H]2[C@@H](c3ccc(F)cc3)C(=O)N2c2cc(OC)c(OC)c(OC)c2)cc1,7.37,6.64,–,–
